Measured values published in ChEMBL document CHEMBL3044584, “4-Sulfenyl-2-carbamoyl-4-isoxazolin-3-ones: biological isostere to 4-chloro-2-carbamoyl-4-isoxazolin-3-ones” (Chem Pharm Bull (Tokyo), 2000).

Experiments:
Eleocharis acicularis [1] = assay: Pre-emergent herbicidal activity against Eleocharis acicularis assessed as growth inhibition at 10 g/a after 3 weeks in greenhouse conditions; format: functional; conditions: pre-emergence, 504 h, read-out: GI
Lindernia procumbens [2] = assay: Pre-emergent herbicidal activity against Lindernia procumbens assessed as growth inhibition at 10 g/a after 3 weeks in greenhouse conditions; format: functional; conditions: pre-emergence, 504 h, read-out: GI
Echinochloa oryzicola [3] = assay: Pre-emergent herbicidal activity against Echinochloa oryzicola assessed as growth inhibition at 10 g/a after 3 weeks in greenhouse conditions; format: functional; conditions: pre-emergence, 504 h, read-out: GI
Eleocharis kuroguwai [4] = assay: Pre-emergent herbicidal activity against Eleocharis kuroguwai assessed as growth inhibition at 10 g/a after 3 weeks in greenhouse conditions; format: functional; conditions: pre-emergence, 504 h, read-out: GI
[5] = Phytotoxicity against Oryza sativa (rice) assessed as growth inhibition at 10 g/a after 3 weeks in greenhouse conditions; format: organism-based; conditions: in vivo, read-out: GI
Cyperus serotinus [6] = assay: Pre-emergent herbicidal activity against Cyperus serotinus assessed as growth inhibition at 10 g/a after 3 weeks in greenhouse conditions; format: functional; conditions: pre-emergence, 504 h, read-out: GI
[7] = system: Schoenoplectiella juncoides; assay: Pre-emergent herbicidal activity against Schoenoplectiella juncoides assessed as growth inhibition at 10 g/a after 3 weeks in greenhouse conditions; format: functional; conditions: pre-emergence, 504 h, read-out: GI
[8] = system: Schoenoplectiella juncoides; assay: Pre-emergent herbicidal activity against Schoenoplectiella juncoides assessed as growth inhibition at 25 g/a after 3 weeks in greenhouse conditions; format: functional; conditions: pre-emergence, 504 h, read-out: GI
Lindernia procumbens [9] = assay: Pre-emergent herbicidal activity against Lindernia procumbens assessed as growth inhibition at 25 g/a after 3 weeks in greenhouse conditions; format: functional; conditions: pre-emergence, 504 h, read-out: GI
Cyperus serotinus [10] = assay: Pre-emergent herbicidal activity against Cyperus serotinus assessed as growth inhibition at 25 g/a after 3 weeks in greenhouse conditions; format: functional; conditions: pre-emergence, 504 h, read-out: GI
Eleocharis acicularis [11] = assay: Pre-emergent herbicidal activity against Eleocharis acicularis assessed as growth inhibition at 25 g/a after 3 weeks in greenhouse conditions; format: functional; conditions: pre-emergence, 504 h, read-out: GI
Echinochloa oryzicola [12] = assay: Pre-emergent herbicidal activity against Echinochloa oryzicola assessed as growth inhibition at 25 g/a after 3 weeks in greenhouse conditions; format: functional; conditions: pre-emergence, 504 h, read-out: GI
[13] = Phytotoxicity against Oryza sativa (rice) assessed as growth inhibition at 25 g/a after 3 weeks in greenhouse conditions; format: organism-based; conditions: in vivo, read-out: GI
Eleocharis kuroguwai [14] = assay: Pre-emergent herbicidal activity against Eleocharis kuroguwai assessed as growth inhibition at 25 g/a after 3 weeks in greenhouse conditions; format: functional; conditions: pre-emergence, 504 h, read-out: GI

Structure (SMILES) | inhibition of growth at 1000 g/ha (Eleocharis acicularis [1]) [%] | inhibition of growth at 1000 g/ha (Lindernia procumbens [2]) [%] | inhibition of growth at 1000 g/ha (Echinochloa oryzicola [3]) [%] | inhibition of growth at 1000 g/ha (Eleocharis kuroguwai [4]) [%] | inhibition at 504 h [5] [%] | inhibition of growth at 1000 g/ha (Cyperus serotinus [6]) [%] | inhibition of growth at 1000 g/ha [7] [%] | inhibition of growth at 2500 g/ha [8] [%] | inhibition of growth at 2500 g/ha (Lindernia procumbens [9]) [%] | inhibition of growth at 2500 g/ha (Cyperus serotinus [10]) [%] | inhibition of growth at 2500 g/ha (Eleocharis acicularis [11]) [%] | inhibition of growth at 2500 g/ha (Echinochloa oryzicola [12]) [%] | inhibition at 504 h [13] [%] | inhibition of growth at 2500 g/ha (Eleocharis kuroguwai [14]) [%]
CCCSc1c(C)on(C(=O)N(c2ccc(F)cc2F)C(C)C)c1=O | > 91 | > 91 | > 91 | > 91 | 11 | > 91 | > 91 |  |  |  |  |  |  | 
Cc1on(C(=O)N(c2ccc(Cl)cc2)C(C)C)c(=O)c1SC(C)C | 51 | 51 | > 91 | > 91 | < 10 | > 91 | > 91 | > 91 | > 91 | > 91 | 71 | > 91 | 31 | > 91
CCc1on(C(=O)N(c2ccc(Cl)cc2)C(C)C)c(=O)c1SC(C)C |  |  |  |  |  |  |  | > 91 | 51 | > 91 | 51 | > 91 | < 10 | > 91
Cc1on(C(=O)N(c2ccc(Cl)cc2)C(C)C)c(=O)c1SC(F)F | > 91 | 51 | > 91 | > 91 | 11 | > 91 | > 91 |  |  |  |  |  |  | 
COCCSc1c(C)on(C(=O)N(c2ccc(Cl)cc2)C(C)C)c1=O | 51 | 31 | > 91 | > 91 | < 10 | > 91 | > 91 | > 91 | 51 | > 91 | 71 | > 91 | 11 | > 91
C#CCSc1c(C)on(C(=O)N(c2ccc(Cl)cc2)C(C)C)c1=O | 51 | 51 | > 91 | > 91 | < 10 | > 91 | > 91 | > 91 | 71 | > 91 | 51 | > 91 | 31 | > 91
CCSc1c(C)on(C(=O)N(CC)c2ccc(Cl)cc2)c1=O | 71 | 71 | > 91 | > 91 | 31 | > 91 | > 91 |  |  |  |  |  |  | 
CCCN(C(=O)n1oc(C)c(SCC)c1=O)c1ccc(Cl)cc1 | 71 | > 91 | > 91 | > 91 | 11 | > 91 | > 91 |  |  |  |  |  |  | 
CCSc1c(C)on(C(=O)N(C)c2ccc(Cl)cc2)c1=O |  |  |  |  |  |  |  | 71 | 71 | > 91 | 71 | > 91 | 11 | > 91
